From ChEMBL document CHEMBL4673307, “Pyrrolo[2,3-b]pyridine-3-one derivatives as novel fibroblast growth factor receptor 4 inhibitors for the treatment of hepatocellular carcinoma” (Bioorg Med Chem, 2021)

Key:
[1] = Metabolic stability in human liver microsomes assessed as half life at 1 uM incubated for 60 mins by LC-MS/MS analysis; format: ADME, Microsome
[2] = Metabolic stability in human liver microsomes assessed as intrinsic clearance at 1 uM incubated for 60 mins by LC-MS/MS analysis; format: ADME, Microsome; details: read-out: CLH
Hep 3B2 = assay: Antiproliferative activity against human Hep3B cells assessed as reduction in cell viability incubated for 72 hrs by Cell Titer-Glo assay
[3] = target: Fibroblast growth factor receptor 4 (Homo sapiens, UniProt P22455); assay: Inhibition of human FGFR4 using poly (Glu, Tyr)4:1 as substrate incubated for 20 mins followed by [33P]-ATP addition and measured after 120 mins by radiometric hotspot assay
[4] = Oral bioavailability in Sprague-Dawley rat at 10 mg/kg measured upto 24 hrs by LC-MS/MS analysis; format: ADME, organism-based; details: in vivo
[5] = MRTlast in Sprague-Dawley rat at 10 mg/kg, po measured upto 24 hrs by LC-MS/MS analysis; format: ADME, organism-based; details: in vivo
[6] = AUClast in Sprague-Dawley rat at 10 mg/kg, po measured upto 24 hrs by LC-MS/MS analysis; format: ADME, organism-based; parameters: route oral, dose 10 mg/kg, time <=24; details: in vivo
[7] = Half life in Sprague-Dawley rat at 10 mg/kg, po measured upto 24 hrs by LC-MS/MS analysis; format: ADME, organism-based; details: in vivo
[8] = Tmax in Sprague-Dawley rat at 10 mg/kg, po measured upto 24 hrs by LC-MS/MS analysis; format: ADME, organism-based; details: in vivo
[9] = Cmax in Sprague-Dawley rat at 10 mg/kg, po measured upto 24 hrs by LC-MS/MS analysis; format: ADME, organism-based; parameters: route oral, dose 10 mg/kg, time <=24; details: in vivo
[10] = AUClast in Sprague-Dawley rat at 1 mg/kg, iv measured upto 24 hrs by LC-MS/MS analysis; format: ADME, organism-based; parameters: route intravenous, dose 1 mg/kg, time <=24; details: in vivo
[11] = MRTlast in Sprague-Dawley rat at 1 mg/kg, iv measured upto 24 hrs by LC-MS/MS analysis; format: ADME, organism-based; details: in vivo
[12] = Half life in Sprague-Dawley rat at 1 mg/kg, iv measured upto 24 hrs by LC-MS/MS analysis; format: ADME, organism-based; details: in vivo
[13] = Tmax in Sprague-Dawley rat at 1 mg/kg, iv measured upto 24 hrs by LC-MS/MS analysis; format: ADME, organism-based; details: in vivo
[14] = Cmax in Sprague-Dawley rat at 1 mg/kg, iv measured upto 24 hrs by LC-MS/MS analysis; format: ADME, organism-based; parameters: route intravenous, dose 1 mg/kg, time <=24; details: in vivo

Fibroblast growth factor receptor 4, sequence (P22455 whole entry): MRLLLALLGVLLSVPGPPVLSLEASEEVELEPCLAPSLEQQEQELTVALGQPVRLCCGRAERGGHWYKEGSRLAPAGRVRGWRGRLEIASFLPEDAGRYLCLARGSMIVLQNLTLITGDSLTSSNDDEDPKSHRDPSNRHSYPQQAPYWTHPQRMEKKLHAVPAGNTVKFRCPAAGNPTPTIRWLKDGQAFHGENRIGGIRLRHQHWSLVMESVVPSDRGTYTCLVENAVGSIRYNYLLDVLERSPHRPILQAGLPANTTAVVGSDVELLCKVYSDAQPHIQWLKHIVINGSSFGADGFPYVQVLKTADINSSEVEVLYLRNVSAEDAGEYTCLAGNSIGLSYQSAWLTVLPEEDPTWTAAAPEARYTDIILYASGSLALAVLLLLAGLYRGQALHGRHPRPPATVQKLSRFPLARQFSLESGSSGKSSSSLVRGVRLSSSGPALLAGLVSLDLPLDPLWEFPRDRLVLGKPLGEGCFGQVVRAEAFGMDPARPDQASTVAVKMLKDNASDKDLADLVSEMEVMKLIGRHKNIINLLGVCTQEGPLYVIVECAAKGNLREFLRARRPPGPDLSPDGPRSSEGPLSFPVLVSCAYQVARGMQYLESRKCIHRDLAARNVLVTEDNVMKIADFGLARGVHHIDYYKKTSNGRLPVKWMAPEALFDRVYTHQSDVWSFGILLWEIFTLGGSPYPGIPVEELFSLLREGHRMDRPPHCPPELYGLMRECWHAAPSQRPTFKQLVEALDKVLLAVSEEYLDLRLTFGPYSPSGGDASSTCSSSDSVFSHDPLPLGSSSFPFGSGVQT

IC50 [3] | Compound | IC50 (Hep 3B2) | other results
> 1 µM | CC#CC(=O)N1CCN(CCCn2cc(-c3cc(OC)cc(OC)c3)c3cnc(NC)nc32)CC1 | > 10 µM | –
> 1 µM | C=CC(=O)N1CCN(CCn2cc(-c3cc(OC)cc(OC)c3)c3cnc(NC)nc32)CC1 | > 10 µM | –
> 1 µM | C=CC(=O)N1CCN(CCn2cc(-c3ccc(OC)c(OC)c3)c3cnc(NC)nc32)CC1 | > 10 µM | –
> 1 µM | CNc1ncc2c(-c3cc(OC)cc(OC)c3)noc2n1 | > 10 µM | –
> 1 µM | C=CS(=O)(=O)N1CCN(CCCn2cc(-c3cc(OC)cc(OC)c3)c3cnc(NC)nc32)CC1 | > 10 µM | –
> 1 µM | C=CC(=O)N1CCN(CCn2nc(-c3cc(OC)cc(OC)c3)c3cnc(NC)nc32)CC1 | > 10 µM | –

More lines, now with the values behind:

Compound | IC50 [3] | IC50 (Hep 3B2) | other results
C=CC(=O)Nc1cccc(C)c1Nc1ncc2cc(-c3c(Cl)c(OC)cc(OC)c3Cl)ccc2n1 | – | 0.288 µM | half-life at 1 µM [1]: 46.7 min; microsomal CLint at 1 µM [2]: 74.1 µL/min/mg
CC#CC(=O)Nc1ccccc1Nc1ccc2c(C(=O)c3cc(OC)cc(OC)c3)c[nH]c2n1 | – | 0.602 µM | –
C=CC(=O)N1CCN(CCCn2cc(-c3cc(OC)cc(OC)c3)c3ccc(NC)nc32)CC1 | – | > 10 µM | –
C=CS(=O)(=O)Nc1ccccc1Nc1ccc2c(C(=O)c3cc(OC)cc(OC)c3)c[nH]c2n1 | – | 1.03 µM | –
C=CC(=O)Nc1ccccc1Nc1ccc2c(C(=O)c3cc(OC)cc(OC)c3)c[nH]c2n1 | – | – | bioavailability [4]: 6.65%; MRT last at 24 h [5]: 227 min; AUC(0-t) at 24 h [6]: 206 ng·h/mL; half-life [7]: 463 min; Tmax [8]: 60 min; Cmax [9]: 33.9 ng/mL; AUC(0-t) at 24 h [10]: 277 ng·h/mL; MRT last at 24 h [11]: 46.2 min; half-life [12]: 51.6 min; Tmax [13]: 4.98 min; Cmax [14]: 361 ng/mL; half-life at 1 µM [1]: 62 min; microsomal CLint at 1 µM [2]: 55.9 µL/min/mg
C=CC(=O)NC1CCCCC1Nc1ccc2c(C(=O)c3cc(OC)cc(OC)c3)c[nH]c2n1 (centres undefined) | – | 0.258 µM | –
C=CC(=O)Nc1cccc(C)c1Nc1ccc2c(C(=O)c3cc(OC)cc(OC)c3)c[nH]c2n1 | – | 0.438 µM | –
C=CC(=O)Nc1ccccc1Nc1ncc2c(-c3cc(OC)cc(OC)c3)n[nH]c2n1 | – | 4.09 µM | –
